Assay results published in patent US8273769B2, “Phenoxy acetic acid derivatives” (Merck Serono SA, priority 2009, dated 2012).
Each block holds one compound with its values, some of them ahead of it.

What was measured:
[1] = In vivo pharmacokinetic evaluation in mouse; parameters: species or system C57BL/6 female mice; conditions: mice; for clearance / bioavailability / AUC: female, C57BL/6, mouse, plasma; for clearance: iv, i.v. 1 mg/Kg; for AUC po (5 mg/Kg) / AUC: oral gavage 5 mg/Kg; for bioavailability: po, 5 mg/kg
Experimental: In order to study the pharmacokinetic (PK) profile of test compounds in vivo, Sprague Dawley male rats or C57BL/6 female mice were dosed intravenously or after oral gavage. For both species, test compounds were dosed in solution at 1 mg/kg for i.v. route (10% ethanol, 10% N,N-dimethylacetamide, 30% propylene glycol, 50% water, v/v) and in suspension at 5 mg/kg (0.5% carboxymethylcellulose suspension, containing 0.25% Tween 20 in water) for oral gavage. PK profile in rat was obtained from 3 animals per dosing route and mouse PK profile was determined from 3 animals for each time points. The volume of administration was 2 mL/kg for i.v. dosing in both species and either 5 mL/kg (rat) or 10 mL/kg (mouse) for oral gavage. Blood samples (100 μL/time point) were collected at 0.083 (5 min), 0.25, 0.5, 1, 4, 7 and 24 hours post-dose for i.v. dosing, and at 0.5, 1, 4, 7 and 24 h for oral dosing, into heparin-Li+ containing tubes. For rats, all blood samples were collected trough a catheter in the carotid artery (placed in the artery the day before the experiment), under light isoflurane anesthesia, and stored on ice until centrifugation and plasma isolation. For mouse, blood samples were collected from intracardiac puncture at sacrifice at each time point and processed as described above for the rat. Plasma samples were stored frozen until analysis (−20° C. to −70° C.). For bioanalysis, samples were processed by protein precipitation (acetonitrile, formic acid 0.1%, addition of 3 volumes) after addition of one internal standard and analysed using a sensitive and selective LC/MS/MS method. An aliquot of the resulting supernatant was subject to LC/MS/MS analysis using a reverse phase column (Waters Xterra, C8, (3.5 μm particle size, 2.1×50 mm) and a short gradient (1 min) from (Solvent A) 85% water, 15% acetonitrile and 0.1% formic acid to (Solvent B) 90% acetonitrile, 10% water and 0.1% formic acid followed by isocratic conditions of Solvent B for 3.5 min at 0.4 mL/min. Column effluent was monitored using a Sciex API 4000 triple quadrupole mass spectrometer with a Turbo V electrospray ion source. Unknown concentrations of test compounds were determined using a calibration curve ranging from 1 to 3000 ng/mL.

[2] = tested on: eosinophils in human whole blood; assay: PGD2-induced eosinophil cell shape assay in human whole blood; format: cell-based; conditions: 10 nM PGD2 final, flow cytometry
Experimental: The Compounds of Formula (I) were diluted in dimethylsulphoxide so that the total volume of dimethylsulfoxide was kept constant at 2% dimethylsulphoxide (Me2SO). Serial dilutions of 200 μM to 0.09 μM were prepared. Samples of 90 μl of human blood from healthy volunteers (Centre de Transfusion Sanguine de Genève) were pre-incubated in polypropylene Falcon tubes (BD 352063) for 20 minutes in a water bath at 37° C. with 10 μl of diluted compounds. For CRTH2 activation, 100 μl PGD2 (Cayman 12010) at 20 nM was added (10 nM final) to each tube and cells were maintained at 37° C. For negative control cells were treated with PBS. After 10 minutes, cell activation was stopped with 120 μl Formaldehyde 10% (4% final, Fluka 41650) and cells were rested for 10 minutes at room temperature. Fixed cells were transferred into polypropylene tubes and then treated for 1 hour in a water bath at 37° C. with 2 ml of Triton-Surfact-Amps X-100 (Pierce 28314) at 0.166% (0.13% Triton final). After several washes with PBS (red cells lysed progressively during washes, two washes are necessary), cells were analyzed by flow cytometry on a FACSCalibur. In one embodiment, the compounds of Formula (I) of the present invention are capable of blocking the cell shape change of eosinophils induced by PGD2 in Whole Blood.

SMILES: CCCS(=O)(=O)c1ccc(C)c(C#Cc2cc(Cl)ccc2OCC(=O)O)c1 [Example 38, (4-chloro-2-{[2-methyl-5-(propylsulfonyl)phenyl]ethynyl}phenoxy)acetic acid]
IC50 [2]: 81 nM | clearance [1]: 16.7 mL/min/kg | bioavailability [1]: 80% | AUC po (5 mg/Kg) [1]: 3685 ng·h/mL

SMILES: CCCS(=O)(=O)c1ccc(Cl)c(C#Cc2cc(Cl)ccc2OCC(=O)O)c1 [Example 101, (4-chloro-2-{[2-chloro-5-(propylsulfonyl)phenyl]ethynyl}phenoxy)acetic acid]
IC50 [2]: 23 nM | clearance [1]: 16.7 mL/min/kg | bioavailability [1]: 110% | AUC po (5 mg/Kg) [1]: 5795 ng·h/mL

SMILES: CCCS(=O)(=O)c1ccc(F)c(C#Cc2cc(Cl)ccc2OCC(=O)O)c1 [Example 89, (4-chloro-2-{[2-fluoro-5-(propylsulfonyl)phenyl]ethynyl}phenoxy)acetic acid]
IC50 [2]: 23 nM | clearance [1]: 6.67 mL/min/kg | AUC [1]: 6750 ng·h/mL | Oral bioavailability [1]: 63%

SMILES: CC(C)S(=O)(=O)c1ccc(Cl)c(C#Cc2cc(Cl)ccc2OCC(=O)O)c1 [Example 103, (4-chloro-2-{[2-chloro-5-(isopropylsulfonyl)phenyl]ethynyl}phenoxy)acetic acid]
IC50 [2]: 67 nM | clearance [1]: 11.7 mL/min/kg | Oral bioavailability [1]: 64% | AUC po (5 mg/Kg) [1]: 4889 ng·h/mL

SMILES: CN(C)S(=O)(=O)c1ccc(F)c(C#Cc2cc(Cl)ccc2OCC(=O)O)c1 [Example 107, [4-chloro-2-({5-[(dimethylamino)sulfonyl]-2-fluorophenyl}ethynyl)phenoxy]acetic acid]
IC50 [2]: 23 nM | clearance [1]: 10 mL/min/kg | Oral bioavailability [1]: 58% | AUC po (5 mg/Kg) [1]: 4880 ng·h/mL

SMILES: CC(C)S(=O)(=O)c1ccc(F)c(C#Cc2cc(Cl)ccc2OCC(=O)O)c1 [Example 102, (4-chloro-2-{[2-fluoro-5-(isopropylsulfonyl)phenyl]ethynyl}phenoxy)acetic acid]
IC50 [2]: 91 nM | clearance [1]: 5.83 mL/min/kg | bioavailability [1]: 130% | AUC po (5 mg/Kg) [1]: 18691 ng·h/mL

Second part, the compound after the results:

clearance [1]: 1.67 mL/min/kg | Oral bioavailability [1]: 57% | AUC po (5 mg/Kg) [1]: 30942 ng·h/mL
SMILES: O=C(O)COc1ccc(Cl)cc1C#Cc1ccc2c(c1)S(=O)(=O)c1ccccc1-2 [Example 154, {4-chloro-2-[(5,5-dioxidodibenzo[b,d]thien-3-yl)ethynyl]phenoxy}acetic acid]

IC50 [2]: 150 nM | clearance [1]: 5 mL/min/kg | Oral bioavailability [1]: 37% | AUC po (5 mg/Kg) [1]: 5768 ng·h/mL
SMILES: CCCS(=O)(=O)c1cccc(C#Cc2cc(Cl)ccc2OCC(=O)O)c1 [Example 17, (4-chloro-2-{[3-(propylsulfonyl)phenyl]ethynyl}phenoxy)acetic acid]

IC50 [2]: 289 nM | clearance [1]: 13.3 mL/min/kg | AUC [1]: 6210 ng·h/mL | Oral bioavailability [1]: 95%
SMILES: CN(C)S(=O)(=O)c1cncc(C#Cc2cc(Cl)ccc2OCC(=O)O)c1 [Example 35, [4-chloro-2-({5-[(dimethylamino)sulfonyl]pyridin-3-yl}ethynyl)phenoxy]acetic acid]
